{"source": "patent US4157347A", "about": "“N-cyano isothioureas” (Bristol-Myers Company, priority 1978, dated 1979)", "key": {"[1]": {"system": "histamine-induced gastric acid output", "assay": "Gastric antisecretory activity in the gastric fistula dog (histamine-induced gastric acid output)", "type": "in vivo, dog (beagle)", "protocol": "Determination of Gastric Antisecretory Activity in the Gastric Fistula Dog\nThomas type [Thomas, J. E., Proc. Soc. exp. Biol. Med., 46, 260 (1941)] stainless steel cannulae are inserted into the stomachs of beagle dogs (10-12 kg.) just orad to the pyloric gland area near the greater curvature to provide a chronic gastric fistula. Animals are allowed to recover for at least two months before any testing is done. Dogs are fasted overnight (~18 hours) with water ad lib prior to each experiment. The dogs are placed in a sling and an eight inch inside needle catheter (C. R. Baird, Inc.) with a two inch 17 gauge needle is inserted into a leg vein for purposes of drug administration. Gastric secretions are collected every 15 minutes by gravity drainage from the opened cannula. […] A modification of the procedure described by Grossman and Konturek, Gastroenterology, 66, 517 (1974) was followed. […] Each 15 minute sample of gastric juice is measured to the nearest 0.5 ml. and titratable acidity against 0.02 N NaOH (endpoint pH 7.0) is measured with an Autoburet and pH meter (radiometer). The percent inhibition of acid output is calculated as described in the pylorus ligated rat procedure."}, "histamine H2-receptors": {"target": "T1, histamine H2-receptors (Cavia porcellus, UniProt P47747)", "T1 construct": "The spontaneously beating right atrium was dissected free from other tissues; from tissue; host or cells: isolated spontaneously beating right atrium of male Hartley guinea pigs", "T1 sequence (P47747 whole entry)": "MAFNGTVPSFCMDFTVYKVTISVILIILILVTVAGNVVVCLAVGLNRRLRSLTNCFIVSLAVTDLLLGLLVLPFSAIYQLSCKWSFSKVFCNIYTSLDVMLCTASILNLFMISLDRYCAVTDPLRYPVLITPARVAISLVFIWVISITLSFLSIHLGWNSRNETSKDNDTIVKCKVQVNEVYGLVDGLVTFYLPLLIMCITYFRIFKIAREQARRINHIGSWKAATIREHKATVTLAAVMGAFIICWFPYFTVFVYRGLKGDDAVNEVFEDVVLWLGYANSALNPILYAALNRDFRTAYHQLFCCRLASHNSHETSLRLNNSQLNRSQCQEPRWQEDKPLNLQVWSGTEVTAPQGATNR", "assay": "Histamine H2-receptor antagonism, isolated guinea pig right atria assay", "type": "cell-based", "protocol": "Subsequent investigations by Hughes and Coret, Proc. Soc. […] Black et al., Agents and Actions, 3, 133 (1973) and Brimblecombe et al., Fed. […] The present comparative studies were carried out using a modification of the procedure reported by Reinhardt et al., Agents and Actions, 4, 217 (1974).\nMale Hartley strain guinea pigs (350-450 gm.) were sacrificed by a blow on the head. The heart was excised and placed in a Petri dish of oxygenated (95% O2, 5% CO2) modified Krebs solution (g./liter: NaCl 6.6, KCl 0.35, MgSO4.7 H2 O 0.295, KH2 PO4 0.162, CaCl2 0.238, NaHCO3 2.1 and dextrose 2.09). The spontaneously beating right atrium was dissected free from other tissues and a silk thread (4-0) attached to each end. The atrium was suspended in a 20 ml. muscle chamber containing oxygenated modified Krebs solution maintained at 32° C. Atrial contractions were recorded isometrically by means of a Grass FT 0.03 force displacement transducer and recordings of contractile force and rate were made with a Beckman RP Dynograph.\nA resting tension of 1 g. was applied to the atrium and it was allowed to equilibrate for 1 hour.\nConcentration-response curve displacement factors were calculated as follows: [formula] The factor obtained for BL-5641 was then expressed as a ratio of the factor obtained for cimetidine. [formula]"}, "gastric acid output": {"system": "gastric acid output", "assay": "Gastric antisecretory activity in the two hour pylorus ligated (Shay) rat", "type": "in vivo, rat (male Long Evans)", "excerpt": "Determination of Gastric Antisecretory Activity in the Two Hour Pylorus Ligated (Shay) Rat\nThe pyloric ligation procedure in the rat was designed by Shay et al., Gastroenterology, 5,53 (1945) for the study of perforating gastric ulcers; however, as the method became known, it was also employed as a means of studying rat gastric secretion, Shay et al., Gastroenterology, 26, 906 (1954), Brodie, D. A., Am. J. Dig. Dis., 11, 231 (1966). A modification of this procedure is presently used to evaluate compounds for gastric antisecretory activity.\nMale Long Evans rats, 280-300 gm., are used. The animals are placed in individual cages and fasted for 24 hours with free access to water. Under ether anesthesia, the stomach is reached through a midline incision, and a cotton-thread ligature is placed around the pylorus. After wound closure, ether administration is stopped and either BL-5641, cimetidine or vehicle are administered intraperitoneally in a volume of […]. BL-5641 and cimetidine are solubilized with one equivalent of HCl and brought to the proper volume with water. The animals are returned to their cages from which the water bottles have been removed and two hours later are sacrificed with ether. The stomach is removed and the two hour gastric collection is drained into a graduated test tube for volume determination. Titratable acidity is measured by titrating a one ml. sample to pH 7.0 with 0.02 N NaOH, using an Autoburet and an electrometric pH meter (Radiometer). Titratable acid output is calculated in microequivalents by multiplying the volume in milliliters by the acid concentration in milliequivalents per liter. The percent inhibition of acid output is calculated as follows [formula]"}}, "note": "Entries after “also recorded” stand apart in the source; their conditions may differ.", "data": [{"smiles": "C#CCN=C(NC#N)NCCSCc1[nH]cnc1C", "note": "[BL-5641, N-Cyano-N'-{2-[(4-methyl-5-imidazolyl)methylthio]ethyl}-N\"-propargylguanidine]", "values": [{"measurement": "% Inhibition Acid Output", "setting": "[1]; 0.75 μM/kg. iv, 15 min, dog 23553, N=1", "value": 51, "unit": "%"}, {"measurement": "% Inhibition Acid Output", "setting": "[1]; 0.75 μM/kg. iv, 30 min, dog 23553, N=1", "value": 38, "unit": "%"}, {"measurement": "% Inhibition Acid Output", "setting": "[1]; 0.75 μM/kg. iv, 45 min, dog 23553, N=1", "value": 28, "unit": "%"}, {"measurement": "% Inhibition Acid Output", "setting": "[1]; 0.75 μM/kg. iv, 60 min, dog 23553, N=1", "value": 28, "unit": "%"}, {"measurement": "% Inhibition Acid Output", "setting": "[1]; 0.75 μM/kg. iv, 75 min, dog 23553, N=1", "value": 31, "unit": "%"}, {"measurement": "% Inhibition Acid Output", "setting": "[1]; 0.75 μM/kg. iv, 90 min, dog 23553, N=1", "value": 43, "unit": "%"}, {"measurement": "% Inhibition Acid Output", "setting": "[1]; 0.75 μM/kg. iv, 105 min, dog 23553, N=1", "value": 42, "unit": "%"}, {"measurement": "% Inhibition Acid Output", "setting": "[1]; 0.75 μM/kg. iv, 120 min, dog 23553, N=1", "value": 46, "unit": "%"}, {"measurement": "% Inhibition Acid Output", "setting": "[1]; 1.5 μM/kg. iv, 15 min, dog 24895, N=1", "value": 82, "unit": "%"}, {"measurement": "% Inhibition Acid Output", "setting": "[1]; 1.5 μM/kg. iv, 30 min, dog 24895, N=1", "value": 72, "unit": "%"}, {"measurement": "% Inhibition Acid Output", "setting": "[1]; 1.5 μM/kg. iv, 45 min, dog 24895, N=1", "value": 53, "unit": "%"}, {"measurement": "% Inhibition Acid Output", "setting": "[1]; 1.5 μM/kg. iv, 60 min, dog 24895, N=1", "value": 49, "unit": "%"}, {"measurement": "% Inhibition Acid Output", "setting": "[1]; 1.5 μM/kg. iv, 75 min, dog 24895, N=1", "value": 33, "unit": "%"}, {"measurement": "% Inhibition Acid Output", "setting": "[1]; 1.5 μM/kg. iv, 90 min, dog 24895, N=1", "value": 7, "unit": "%"}, {"measurement": "% Inhibition Acid Output", "setting": "[1]; 1.5 μM/kg. iv, 105 min, dog 24895, N=1", "value": 0, "unit": "%"}, {"measurement": "% Inhibition Acid Output", "setting": "[1]; 1.5 μM/kg. iv, 120 min, dog 24895, N=1", "value": 0, "unit": "%"}, {"measurement": "% Inhibition Acid Output", "setting": "[1]; 3 μM/kg. iv, 15 min, dog 23606, N=1", "value": 60, "unit": "%"}, {"measurement": "% Inhibition Acid Output", "setting": "[1]; 3 μM/kg. iv, 30 min, dog 23606, N=1", "value": 59, "unit": "%"}, {"measurement": "% Inhibition Acid Output", "setting": "[1]; 3 μM/kg. iv, 45 min, dog 23606, N=1", "value": 36, "unit": "%"}, {"measurement": "% Inhibition Acid Output", "setting": "[1]; 3 μM/kg. iv, 60 min, dog 23606, N=1", "value": 34, "unit": "%"}, {"measurement": "% Inhibition Acid Output", "setting": "[1]; 3 μM/kg. iv, 75 min, dog 23606, N=1", "value": 32, "unit": "%"}, {"measurement": "% Inhibition Acid Output", "setting": "[1]; 3 μM/kg. iv, 90 min, dog 23606, N=1", "value": 42, "unit": "%"}, {"measurement": "% Inhibition Acid Output", "setting": "[1]; 3 μM/kg. iv, 105 min, dog 23606, N=1", "value": 24, "unit": "%"}, {"measurement": "% Inhibition Acid Output", "setting": "[1]; 3 μM/kg. iv, 120 min, dog 23606, N=1", "value": 0, "unit": "%"}, {"measurement": "% Inhibition Acid Output", "setting": "[1]; 6 μM/kg. iv, 15 min, dog 22619, N=1", "value": 82, "unit": "%"}, {"measurement": "% Inhibition Acid Output", "setting": "[1]; 6 μM/kg. iv, 30 min, dog 22619, N=1", "value": 99, "unit": "%"}, {"measurement": "% Inhibition Acid Output", "setting": "[1]; 6 μM/kg. iv, 45 min, dog 22619, N=1", "value": 99, "unit": "%"}, {"measurement": "% Inhibition Acid Output", "setting": "[1]; 6 μM/kg. iv, 60 min, dog 22619, N=1", "value": 95, "unit": "%"}, {"measurement": "% Inhibition Acid Output", "setting": "[1]; 6 μM/kg. iv, 75 min, dog 22619, N=1", "value": 78, "unit": "%"}, {"measurement": "% Inhibition Acid Output", "setting": "[1]; 6 μM/kg. iv, 90 min, dog 22619, N=1", "value": 76, "unit": "%"}, {"measurement": "% Inhibition Acid Output", "setting": "[1]; 6 μM/kg. iv, 105 min, dog 22619, N=1", "value": 52, "unit": "%"}, {"measurement": "% Inhibition Acid Output", "setting": "[1]; 6 μM/kg. iv, 120 min, dog 22619, N=1", "value": 53, "unit": "%"}, {"measurement": "% Inhibition Acid Output", "setting": "[1]; 12 μM/kg. iv, 15 min, dog 24136, N=1", "value": 66, "unit": "%"}, {"measurement": "% Inhibition Acid Output", "setting": "[1]; 12 μM/kg. iv, 30 min, dog 24136, N=1", "value": 99, "unit": "%"}, {"measurement": "% Inhibition Acid Output", "setting": "[1]; 12 μM/kg. iv, 45 min, dog 24136, N=1", "value": 99, "unit": "%"}, {"measurement": "% Inhibition Acid Output", "setting": "[1]; 12 μM/kg. iv, 60 min, dog 24136, N=1", "value": 99, "unit": "%"}, {"measurement": "% Inhibition Acid Output", "setting": "[1]; 12 μM/kg. iv, 75 min, dog 24136, N=1", "value": 99, "unit": "%"}, {"measurement": "% Inhibition Acid Output", "setting": "[1]; 12 μM/kg. iv, 90 min, dog 24136, N=1", "value": 93, "unit": "%"}, {"measurement": "% Inhibition Acid Output", "setting": "[1]; 12 μM/kg. iv, 105 min, dog 24136, N=1", "value": 91, "unit": "%"}, {"measurement": "% Inhibition Acid Output", "setting": "[1]; 12 μM/kg. iv, 120 min, dog 24136, N=1", "value": 73, "unit": "%"}, {"measurement": "duration of activity vs cimetidine", "setting": "[1]; equal (equimolar) doses iv, in words", "value": "of longer duration with BL-5641 than with cimetidine; also recorded: longer duration of activity than cimetidine at equal doses"}, {"measurement": "degree of inhibition of gastric acid output vs cimetidine", "setting": "[1]; equimolar doses iv, in words", "value": "consistently greater"}, {"measurement": "inhibitor of gastric acid output, potency vs cimetidine", "setting": "[1]; iv, in words", "value": "more potent and/or longer acting than cimetidine; also recorded: more potent than cimetidine"}, {"measurement": "onset of effect on gastric acid output", "setting": "[1]; iv, in words", "value": "immediate inhibitory effect on gastric acid output"}, {"measurement": "Histamine ED50 With 95% Confidence Limits", "setting": "histamine H2-receptors; histamine ED50 in presence of test compound 1 × 10^-5 M, 30 min incubation", "value": 12.44, "unit": "µg/mL"}, {"measurement": "histamine H2-receptor antagonist potency vs cimetidine", "setting": "histamine H2-receptors; isolated guinea pig atria, in words", "value": "more potent than cimetidine"}, {"measurement": "Concentration-Response Curve Displacement Factor", "setting": "histamine H2-receptors; test compound 1 × 10^-5 M", "value": 32.7}, {"measurement": "% Inhibition of Acid Output", "setting": "gastric acid output; 10 μMole/kg. ip, 2 h (BL-5641 2.76 mg/kg; cimetidine 2.5 mg/kg)", "value": 37, "unit": "%"}, {"measurement": "% Inhibition of Acid Output", "setting": "gastric acid output; 20 μMole/kg. ip, 2 h (BL-5641 5.53 mg/kg; cimetidine 5 mg/kg)", "value": 61, "unit": "%"}, {"measurement": "% Inhibition of Acid Output", "setting": "gastric acid output; 40 μMole/kg. ip, 2 h (BL-5641 11.1 mg/kg; cimetidine 10 mg/kg)", "value": 80, "unit": "%"}, {"measurement": "ED50", "setting": "gastric acid output; Rattus norvegicus, ip, 2 h, read-out: ED50 (inhibition of acid output)", "value": "~11", "unit": "µmol/kg"}, {"measurement": "potency in inhibition of gastric acid output vs cimetidine", "setting": "gastric acid output; in words", "value": "at least as potent as cimetidine; also recorded: more potent than cimetidine"}]}]}
